Columns and labels:
[1] = system: Wnt target genes; test: Wnt signaling pathway-focused microarray (SuperArray) of INS-1 cells treated with SDF-1; assay type: cell-based; details: 4 hrs
Procedure: FIG. 8. Wnt signaling focused array analysis. INS-1 cells were stimulated by SDF-1 (10 nM) for 4 hr. Total RNA was isolated and biotin-labeled complementary RNAs were generated. The Wnt signaling pathway-focused microarray filters (SuperArray Bioscience) were hybridzed with these biotin-labeled targets at 60 degree overnight. The filters were washed and subsequently incubated with alkaline phosphatase-conjugated streptavidin and CDP-substrate. The chemiluminescent images were captured. For quantification, the spot intensity was measured and normalized to the value of the housekeeping gene GADPH. Shown is a representative image of the focused array.
Gene expression profiling on focused microarrays INS-1 cells were untreated or treated with 10 nM SDF-1 for 4 hrs. Total RNA was isolated and Biotin-labeled complimentary RNAs were generated using the TrueLabeling-AMP Linear RNA Amplification Kit (SuperArray Bioscience Corp.) The Wnt-signaling pathway-focused microarray filters (118 probes) (SuperArray Bioscience Corp.) were hybridized with these biotin-labeled targets (5 microg/array at 60 C overnight. The filters were washed and subsequently incubated with alkaline phosphatase-conjugated streptavidin and CDPStar substrate. The Chemiluminescent images were captured using Kodak Digital Station 440 (Perkin Elmer). For quantification, the spot intensity was measured and normalized to the value of the housekeeping gene GAPDH. Fold-changes in gene expression levels were determined by comparisons of hybridization densities of SDF-1 treated versus untreated INS-1 cells. Real time RT-PCR was carried out by using the SYBR® Green QPCR kit (Stratagene). Briefly, INS-1 cells were treated with 10 nM SDF-1 or PBS vehicle control for 4 h. Total RNA was reverse-transcribed to cDNA using Super-Script II reverse transcriptase (Invitrogen). Real-time PCR was performed to amplify cyclin D1 and beta-catenin.
The expression of transcripts in INS-1 cells in response to SDF-1 (10 nM, 4 hrs) was determined on focused arrays of genes expressed in the Wnt signaling pathway. […] This finding is consistent with the down-regulation of genes expressing components of the beta-catenin destruction box involved in the degradation of beta-catenin that occurs in the absence of active Wnt signaling; for example, axin, glycogen synthase kinase-3 (Gsk3) and casein kinase 1 (Csnk1). These findings are consistent with the mechanism of Wnt/Fz-induced signaling involving Galphai/o activation of disheveled (Dv1) and the inhibition of the destruction box enzymes GSK3 and Csnk1 that destabilize and degrade betacatenin.

[2] = system: beta-catenin; test: Western immunoblot of total and active (unphosphorylated) beta-catenin in INS-1 cells; assay type: cell-based
Procedure: FIG. 5. Inhibition of TCF7L2 or beta-catenin suppresses SDF-1 induced TOPflash activity. A. Dominant-negative TCF7L2 inhibits both basal and SDF-1-induced TOPflash activity. B. SiRNAs to beta-catenin SiRNAs inhibit SDF-1-stimulated Wnt signaling in INS-1 cells. INS-1 Cells were transfected and preincubated with TOPflash and the combination of either siRNAs 1 and 2, or scrambled siRNA and then treated for 4 hrs with 1 nM SDF-1 or control vehicle. Data are normalized for transfection efficiency by co-transfected beta-galactosidase and represent means±S.D. of three experiments. C. SDF-1 stabilizes beta-catenin through GPCR coupled Galphai/o. INS-1 cell cultures were stimulated with SDF-1 for the indicated times. Immunoblot analyses with anti-beta-catenin or anti-unphosphorylated beta-catenin (active beta-catenin).
Western Immunoblots Membrane immunoblots were prepared from extracts of INS-1 cells and were interrogated with antisera to beta-catenin: total protein (Santa Cruz), and active form with the mutated GSK-3 phosphorylation sites (UpState 8E7).
The transcriptional activation of Wnt target genes requires the association of TCF7L2 with nuclear beta-catenin. Therefore, we investigated whether active TCF7L2 is necessary for SDF-1-induced Wnt signaling. […]

With “SDF-1: small, secreted 70 amino acid peptide chemokine, SEQ ID NO: 1, ligand of CXCR4” the “mRNA fold change by SDF-1” value ([1]; gene Axin1, SDF-1 10 nM) was −2.58 fold, the “mRNA fold change by SDF-1” value ([1]; gene Ccnd1 (Cyclin D1), SDF-1 10 nM) was 1.48 fold and the “mRNA fold change by SDF-1” value ([1]; gene Ccnd2 (Cyclin D2), SDF-1 10 nM) was −2.29 fold. For the same substance, the “mRNA fold change by SDF-1” value ([1]; gene Csnk2a1 (Casein kinase II, Alpha1), SDF-1 10 nM) was −1.42 fold, the “mRNA fold change by SDF-1” value ([1]; gene Csnk2b (Casein kinase 2, beta subunit), SDF-1 10 nM) was −3.03 fold and the “mRNA fold change by SDF-1” value ([1]; gene Ctbp1 (C-terminal binding protein 1), SDF-1 10 nM) was −2.32 fold. For the same substance, the “mRNA fold change by SDF-1” value ([1]; gene Ctnnb1 (Catenin (cadherin associated protein), beta 1), SDF-1 10 nM) was 1.99 fold, the “mRNA fold change by SDF-1” value ([1]; gene Cxxc4 (CXXC finger 4), SDF-1 10 nM) was −1.43 fold and the “mRNA fold change by SDF-1” value ([1]; gene Dvl1 (Dishevelled, dsh homolog 1), SDF-1 10 nM) was −1.92 fold. The “mRNA fold change by SDF-1” value ([1]; gene Fosl1 (Fos-like antigen 1), SDF-1 10 nM) was 1.72 fold, the “mRNA fold change by SDF-1” value ([1]; gene Foxn1 (Forkhead box N1), SDF-1 10 nM) was 1.66 fold and the “mRNA fold change by SDF-1” value ([1]; gene Fshb (Follicle stimulating hormone beta), SDF-1 10 nM) was 1.69 fold. For the same substance, the “mRNA fold change by SDF-1” value ([1]; gene Fzd2 (Frizzled homolog 2), SDF-1 10 nM) was 1.43 fold, the “mRNA fold change by SDF-1” value ([1]; gene Gsk3a (Glycogen synthase kinase 3 alpha), SDF-1 10 nM) was −1.67 fold and the “mRNA fold change by SDF-1” value ([1]; gene Gsk3b (Glycogen synthase kinase 3 beta), SDF-1 10 nM) was −1.51 fold. The “mRNA fold change by SDF-1” value ([1]; gene Lrp5_predicted (Low density lipoprotein receptor-related protein 5), SDF-1 10 nM) was 1.72 fold, the “mRNA fold change by SDF-1” value ([1]; gene Myc, SDF-1 10 nM) was −2.55 fold and the “mRNA fold change by SDF-1” value ([1]; gene Ppp2cb (Protein phosphatase 2, catalytic subunit, beta isoform), SDF-1 10 nM) was −2.12 fold. The “mRNA fold change by SDF-1” value ([1]; gene Ppp2r1b (Protein phosphatase 2, regulatory subunit A (PR 65), beta isoform), SDF-1 10 nM) was −1.71 fold, the “mRNA fold change by SDF-1” value ([1]; gene Rhoa (Ras homolog gene family, member A), SDF-1 10 nM) was −1.32 fold and the “mRNA fold change by SDF-1” value ([1]; gene Slc9a3r1 (Solute carrier family 9, isoform 3 regulator 1), SDF-1 10 nM) was 1.43 fold. The “mRNA fold change by SDF-1” value ([1]; gene Tcfe2a (Transcription factor E2a), SDF-1 10 nM) was 1.61 fold, the “mRNA fold change by SDF-1” value ([1]; gene Wif1 (Wnt inhibitory factor 1), SDF-1 10 nM) was −1.92 fold and the “mRNA fold change by SDF-1” value ([1]; gene Wnt7b (Wingless-related MMTV integration site 7B), SDF-1 10 nM) was 1.59 fold. For the same substance, the “level of active beta-catenin (unphosphorylated on Ser-33 and Ser-37)” value ([2]; 30 min after SDF-1 treatment) was “increased” and the total beta-catenin ([2]; after 24-48 hours of SDF-1 treatment) was “substantial increase”.
